Earlier results, collected in publication PMC9516332 (Frontiers in Oncology, 2022).
Read-outs that look alike come from different tables or passages of the source.

What was measured:
Conditions in all cases: cited from earlier work
[1] = target: panel of 255 wild-type kinases (Homo sapiens, UniProt P27448)
[2] = target: panel of 255 wild-type kinases (Homo sapiens, UniProt P35968)
[3] = target: panel of 255 wild-type kinases (Homo sapiens, UniProt P68400)
[4] = target: T1, panel of 255 wild-type kinases (Homo sapiens, UniProt Q12866)
T1 sequence (Q12866 21-999): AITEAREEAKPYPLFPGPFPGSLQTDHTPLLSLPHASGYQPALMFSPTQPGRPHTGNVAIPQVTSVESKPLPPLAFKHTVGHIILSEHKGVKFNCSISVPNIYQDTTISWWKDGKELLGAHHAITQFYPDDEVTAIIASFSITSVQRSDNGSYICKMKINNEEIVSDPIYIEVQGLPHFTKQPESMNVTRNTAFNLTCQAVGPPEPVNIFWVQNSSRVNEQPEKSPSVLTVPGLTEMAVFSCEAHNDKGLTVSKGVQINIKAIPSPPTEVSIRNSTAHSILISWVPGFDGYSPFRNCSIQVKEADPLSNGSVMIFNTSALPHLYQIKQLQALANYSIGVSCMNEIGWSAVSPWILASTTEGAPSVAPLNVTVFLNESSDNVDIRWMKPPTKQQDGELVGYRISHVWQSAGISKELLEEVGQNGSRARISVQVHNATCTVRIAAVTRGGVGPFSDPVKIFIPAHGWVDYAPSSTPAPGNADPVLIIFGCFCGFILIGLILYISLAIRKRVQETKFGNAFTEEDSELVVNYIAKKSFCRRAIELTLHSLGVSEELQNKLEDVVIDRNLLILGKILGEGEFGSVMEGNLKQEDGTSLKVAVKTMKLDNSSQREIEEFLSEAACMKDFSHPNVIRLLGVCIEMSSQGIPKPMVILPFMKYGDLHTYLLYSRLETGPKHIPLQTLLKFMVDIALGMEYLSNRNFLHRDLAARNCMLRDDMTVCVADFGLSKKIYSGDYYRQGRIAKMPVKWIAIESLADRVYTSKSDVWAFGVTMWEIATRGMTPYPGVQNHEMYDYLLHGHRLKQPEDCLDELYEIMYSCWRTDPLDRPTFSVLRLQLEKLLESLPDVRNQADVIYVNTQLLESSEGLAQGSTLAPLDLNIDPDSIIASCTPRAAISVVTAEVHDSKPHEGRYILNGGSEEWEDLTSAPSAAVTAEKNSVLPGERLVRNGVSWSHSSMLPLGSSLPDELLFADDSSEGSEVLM

[5] = target: T2, panel of 255 wild-type kinases (Homo sapiens, UniProt Q15139)
T2 sequence (Q15139 1-912): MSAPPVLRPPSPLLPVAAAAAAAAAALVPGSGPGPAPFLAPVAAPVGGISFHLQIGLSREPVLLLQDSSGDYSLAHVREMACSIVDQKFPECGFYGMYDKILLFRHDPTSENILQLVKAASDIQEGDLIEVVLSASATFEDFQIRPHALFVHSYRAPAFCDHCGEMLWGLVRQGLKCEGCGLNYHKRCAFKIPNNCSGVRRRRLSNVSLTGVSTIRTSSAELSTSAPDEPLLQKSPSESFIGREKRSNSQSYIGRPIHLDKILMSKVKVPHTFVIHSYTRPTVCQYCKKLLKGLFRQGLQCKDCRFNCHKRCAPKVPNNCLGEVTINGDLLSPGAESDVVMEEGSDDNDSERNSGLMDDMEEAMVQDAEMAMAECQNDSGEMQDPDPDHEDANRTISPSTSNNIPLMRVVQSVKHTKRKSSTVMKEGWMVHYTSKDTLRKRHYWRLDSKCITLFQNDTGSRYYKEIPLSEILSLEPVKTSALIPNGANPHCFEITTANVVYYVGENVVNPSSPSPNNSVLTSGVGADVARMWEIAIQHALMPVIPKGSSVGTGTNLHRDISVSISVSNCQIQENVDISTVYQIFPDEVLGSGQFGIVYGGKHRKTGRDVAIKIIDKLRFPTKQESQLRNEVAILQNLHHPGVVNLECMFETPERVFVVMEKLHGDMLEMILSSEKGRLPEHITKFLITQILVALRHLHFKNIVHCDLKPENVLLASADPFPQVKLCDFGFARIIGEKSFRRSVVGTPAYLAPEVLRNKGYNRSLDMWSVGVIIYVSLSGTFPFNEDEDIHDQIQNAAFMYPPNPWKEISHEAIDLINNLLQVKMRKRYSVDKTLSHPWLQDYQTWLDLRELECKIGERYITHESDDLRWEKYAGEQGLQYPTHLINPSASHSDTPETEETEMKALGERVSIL

[6] = target: panel of 255 wild-type kinases (Homo sapiens, UniProt Q96GD4)
[7] = target: T3, panel of 255 wild-type kinases (Homo sapiens, UniProt Q9HBY8)
T3 sequence (Q9HBY8 1-367): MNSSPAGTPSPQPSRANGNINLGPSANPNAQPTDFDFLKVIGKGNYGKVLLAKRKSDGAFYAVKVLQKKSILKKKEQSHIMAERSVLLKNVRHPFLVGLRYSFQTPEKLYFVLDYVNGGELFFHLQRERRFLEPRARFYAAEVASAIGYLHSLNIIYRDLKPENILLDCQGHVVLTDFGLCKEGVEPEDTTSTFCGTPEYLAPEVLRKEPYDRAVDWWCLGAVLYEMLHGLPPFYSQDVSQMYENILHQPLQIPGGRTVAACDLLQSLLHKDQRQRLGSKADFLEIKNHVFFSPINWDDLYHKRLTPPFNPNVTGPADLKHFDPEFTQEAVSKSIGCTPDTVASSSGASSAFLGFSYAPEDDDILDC

[8] = MARK3, 1 µmol/L single concentration, ref DOI: 10.1158/1535-7163.MCT-18-0877
[9] = kinase KDR, 1 µmol/L single concentration, ref DOI: 10.1158/1535-7163.MCT-18-0877
[10] = kinase CK2α1/β, 1 µmol/L single concentration, ref DOI: 10.1158/1535-7163.MCT-18-0877
[11] = MER, 1 µmol/L single concentration, ref DOI: 10.1158/1535-7163.MCT-18-0877
[12] = kinase PKD1, 1 µmol/L single concentration, ref DOI: 10.1158/1535-7163.MCT-18-0877
[13] = AurB kinase assay, 1 µmol/L single concentration, ref DOI: 10.1158/1535-7163.MCT-18-0877
[14] = kinase SGK2, 1 µmol/L single concentration, ref DOI: 10.1158/1535-7163.MCT-18-0877
[15] = MARK3, 1 µmol/L single concentration, ref DOI: 10.1371/journal.pone.0092146
[16] = kinase CK2α1/β, 1 µmol/L single concentration, ref DOI: 10.1371/journal.pone.0092146
[17] = kinase SGK2, 1 µmol/L single concentration, ref DOI: 10.1371/journal.pone.0092146
[18] = MER, 1 µmol/L single concentration, ref DOI: 10.1371/journal.pone.0092146
[19] = kinase PKD1, 1 µmol/L single concentration, ref DOI: 10.1371/journal.pone.0092146
[20] = AurB kinase assay, 1 µmol/L single concentration, ref DOI: 10.1371/journal.pone.0092146
[21] = kinase KDR, 1 µmol/L single concentration, ref DOI: 10.1371/journal.pone.0092146

| Compound | %-inhibition, MARK3 [1, 8] | %-inhibition at 1 µmol/L, KDR [2, 9] | %-inhibition at 1 µmol/L, CK2α1/β [3, 10] | %-inhibition, MER [4, 11] | %-inhibition at 1 µmol/L, PKD1 [5, 12] | %-inhibition AurB [6, 13] | %-inhibition at 1 µmol/L, SGK2 [7, 14] | %-inhibition, MARK3 [1, 15] | %-inhibition at 1 µmol/L, SGK2 [7, 17] | further results |
| --- | --- | --- | --- | --- | --- | --- | --- | --- | --- | --- |
| CC#CC(=O)N1CCC[C@H]1c1nc(-c2ccc(C(=O)Nc3ccccn3)cc2)c2c(N)nccn12 [acalabrutinib] | -2.57% | 7% | 5.34% | -3.37% | -9.48% | 11% | -19% | – | – | – |
| CCc1cc2c(cc1N1CCC(N3CCOCC3)CC1)C(C)(C)c1[nH]c3cc(C#N)ccc3c1C2=O [alectinib] | 9% | 18% | -3.18% | 56% | 2% | 9% | -5% | – | – | – |
| COc1cc(N2CCC(N3CCN(C)CC3)CC2)ccc1Nc1ncc(Cl)c(Nc2ccccc2P(C)(C)=O)n1 [brigatinib] | – | – | – | – | – | – | – | – | – | %-inhibition, MARK3 [1]: 99%; %-inhibition at 1 µmol/L, KDR [2]: 86%; %-inhibition at 1 µmol/L, CK2α1/β [3]: 8.51%; %-inhibition, MER [4]: 89%; %-inhibition at 1 µmol/L, PKD1 [5]: 74%; %-inhibition AurB [6]: 46%; %-inhibition at 1 µmol/L, SGK2 [7]: -8% |
| Cc1cc(Nc2ncc(Cl)c(Nc3ccccc3S(=O)(=O)C(C)C)n2)c(OC(C)C)cc1C1CCNCC1 [ceritinib] | 10% | 58% | -8% | 51% | 27% | 8% | -5.59% | – | – | – |
| O=C(c1ccc(F)c(F)c1Nc1ccc(I)cc1F)N1CC(O)([C@@H]2CCCCN2)C1 [cobimetinib] | -1.51% | 13% | -9% | 1.18% | -5% | -11% | 7% | – | – | – |
| C[C@@H](Oc1cc(-c2cnn(C3CCNCC3)c2)cnc1N)c1c(Cl)ccc(F)c1Cl [crizotinib] | – | – | – | – | – | – | – | 41% | -2.31% | %-inhibition at 1 µmol/L, CK2α1/β [3, 16]: -6.39% |
| CC(C)(C)c1nc(-c2cccc(NS(=O)(=O)c3c(F)cccc3F)c2F)c(-c2ccnc(N)n2)s1 [dabrafenib] | – | – | – | – | – | – | – | 4% | -7.58% | %-inhibition, MER [4, 18]: -0.876%; %-inhibition at 1 µmol/L, PKD1 [5, 19]: 83%; %-inhibition AurB [6, 20]: 39% |
| C=CC(=O)N1CCC[C@@H](n2nc(-c3ccc(Oc4ccccc4)cc3)c3c(N)ncnc32)C1 [ibrutinib] | -6% | 84% | -11% | 0.565% | 3.22% | -1.1% | – | – | – | – |
| CO[C@@H]1[C@H](N(C)C(=O)c2ccccc2)C[C@H]2O[C@]1(C)n1c3ccccc3c3c4c(c5c6ccccc6n2c5c31)C(=O)NC4 [midostaurin] | – | – | -5.6% | 85% | – | 86% | -0.775% | – | – | – |
| C=CC(=O)Nc1cc(Nc2nccc(-c3cn(C)c4ccccc34)n2)c(OC)cc1N(C)CCN(C)C [osimertinib] | 9% | 46% | 12% | 10% | 22% | -1.24% | 26% | – | – | – |
| CC(=O)Nc1cccc(-n2c(=O)n(C3CC3)c(=O)c3c(Nc4ccc(I)cc4F)n(C)c(=O)c(C)c32)c1 [trametinib] | – | – | – | – | – | – | – | -3.21% | -7% | %-inhibition at 1 µmol/L, KDR [2, 21]: -0.549%; %-inhibition at 1 µmol/L, CK2α1/β [3, 16]: -3.4%; %-inhibition, MER [4, 18]: -6.62%; %-inhibition at 1 µmol/L, PKD1 [5, 19]: 9%; %-inhibition AurB [6, 20]: -4% |
| CCCS(=O)(=O)Nc1ccc(F)c(C(=O)c2c[nH]c3ncc(-c4ccc(Cl)cc4)cc23)c1F [vemurafenib] | – | – | – | – | – | – | – | -0.226% | 2.66% | %-inhibition at 1 µmol/L, KDR [2, 21]: 13%; %-inhibition at 1 µmol/L, CK2α1/β [3, 16]: -5.39%; %-inhibition, MER [4, 18]: 6%; %-inhibition at 1 µmol/L, PKD1 [5, 19]: 43%; %-inhibition AurB [6, 20]: 6% |
